We go through 5 compounds from ChEMBL document CHEMBL1201862, “PubChem BioAssay data set” (2004).

Activity calls are given as the source filed them.

In assay [1] the target is T1, Short transient receptor potential channel 4 (Mus musculus, UniProt Q9QUQ5).
T1 sequence (Q9QUQ5 whole entry): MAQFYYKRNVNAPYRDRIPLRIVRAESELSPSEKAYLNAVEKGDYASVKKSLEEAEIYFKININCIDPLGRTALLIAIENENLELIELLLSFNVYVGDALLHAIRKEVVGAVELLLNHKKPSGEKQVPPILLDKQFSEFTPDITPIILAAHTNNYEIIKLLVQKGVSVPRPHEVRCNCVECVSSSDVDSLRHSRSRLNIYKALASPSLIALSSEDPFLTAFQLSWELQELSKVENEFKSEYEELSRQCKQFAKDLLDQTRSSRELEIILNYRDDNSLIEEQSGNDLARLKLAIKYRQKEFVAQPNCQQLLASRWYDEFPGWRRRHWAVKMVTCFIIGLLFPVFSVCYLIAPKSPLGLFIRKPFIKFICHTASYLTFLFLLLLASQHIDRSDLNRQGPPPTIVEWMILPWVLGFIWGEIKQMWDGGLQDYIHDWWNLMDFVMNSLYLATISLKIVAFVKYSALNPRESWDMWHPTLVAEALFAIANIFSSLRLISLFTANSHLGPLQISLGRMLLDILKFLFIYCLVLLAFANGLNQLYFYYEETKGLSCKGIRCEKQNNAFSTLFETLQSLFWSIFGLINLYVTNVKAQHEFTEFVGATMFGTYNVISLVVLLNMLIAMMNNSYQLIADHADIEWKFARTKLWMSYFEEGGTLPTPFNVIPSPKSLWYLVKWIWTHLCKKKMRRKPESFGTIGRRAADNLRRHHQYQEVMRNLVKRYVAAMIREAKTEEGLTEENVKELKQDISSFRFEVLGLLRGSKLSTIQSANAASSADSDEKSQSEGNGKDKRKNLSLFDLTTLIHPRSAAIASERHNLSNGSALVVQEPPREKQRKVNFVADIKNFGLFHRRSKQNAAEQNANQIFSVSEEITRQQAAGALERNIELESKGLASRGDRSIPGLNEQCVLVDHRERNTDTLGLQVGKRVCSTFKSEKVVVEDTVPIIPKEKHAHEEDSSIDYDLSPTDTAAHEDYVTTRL
The experiment in a line: mouse TRPC4 channel inhibitors, dose response, cell-based, HEK293 TRPC4/mu-opioid, Fluo-4 calcium (AID 434942).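 Also: potency of inhibitors blocking the TRPC4 calcium response.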 It is filed as functional.

A further assay addresses Ion channel NompC (Danio rerio, UniProt Q7T1G6). The experiment in a line: Fluorescence counterscreen assay for TRPML3 agonists: dose response cell-based high-throughput screening assay to identify agonists of the transient receptor potential channel N1 (TRPN1). [Related pubchem assays: 1526, 1424, 1448 ]. It is filed as functional.
The next assay addresses T2, Mucolipin-3 (Homo sapiens, UniProt Q8TDD5).
T2 sequence (Q8TDD5 whole entry): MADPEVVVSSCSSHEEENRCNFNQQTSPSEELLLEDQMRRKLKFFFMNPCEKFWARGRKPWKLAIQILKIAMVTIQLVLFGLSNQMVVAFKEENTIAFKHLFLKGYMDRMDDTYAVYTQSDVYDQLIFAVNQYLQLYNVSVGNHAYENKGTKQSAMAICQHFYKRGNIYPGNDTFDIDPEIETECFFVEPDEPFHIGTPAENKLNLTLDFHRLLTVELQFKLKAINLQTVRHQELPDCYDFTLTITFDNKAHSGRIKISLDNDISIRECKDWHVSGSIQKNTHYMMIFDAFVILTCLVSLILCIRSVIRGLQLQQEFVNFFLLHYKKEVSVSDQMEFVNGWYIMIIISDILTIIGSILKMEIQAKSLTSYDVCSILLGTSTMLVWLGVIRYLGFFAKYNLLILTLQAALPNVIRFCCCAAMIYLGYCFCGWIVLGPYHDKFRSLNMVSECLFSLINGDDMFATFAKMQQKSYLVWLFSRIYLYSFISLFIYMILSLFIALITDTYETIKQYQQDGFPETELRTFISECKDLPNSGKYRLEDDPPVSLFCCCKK
Kind of assay: Dose response cell-based high-throughput screening assay for agonists of the transient receptor potential channel ML3 (TRPML3). [Related pubchem assays: 1526, 1424, 1448 ]. It is filed as functional.

The target of a further assay is SUMO-activating enzyme (Homo sapiens, UniProt Q9UBT2). The experiment in a line: SUMOylation inhibitor hit validation, confirmation, SUMOylation inhibitor project, biochemical, AlphaScreen (AID 2018). It is filed as functional.
A further assay has as its target T3, X-box-binding protein 1 (Homo sapiens, UniProt P17861).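 Also: confirmatory dose-response counter-screen serving a CHOP assay.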
T3 sequence (P17861 whole entry): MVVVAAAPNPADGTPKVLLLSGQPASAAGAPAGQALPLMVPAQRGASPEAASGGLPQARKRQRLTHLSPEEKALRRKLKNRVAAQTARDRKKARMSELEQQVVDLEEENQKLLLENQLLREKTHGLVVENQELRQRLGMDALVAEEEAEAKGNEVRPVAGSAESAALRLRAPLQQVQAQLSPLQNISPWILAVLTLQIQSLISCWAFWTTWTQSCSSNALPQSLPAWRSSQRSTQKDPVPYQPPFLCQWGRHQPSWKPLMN
It is filed as functional, Cricetulus griseus.

The target in assay [2] is T4, Bcl-2-related protein A1 (Mus musculus, UniProt Q07440).
T4 sequence (Q07440 whole entry): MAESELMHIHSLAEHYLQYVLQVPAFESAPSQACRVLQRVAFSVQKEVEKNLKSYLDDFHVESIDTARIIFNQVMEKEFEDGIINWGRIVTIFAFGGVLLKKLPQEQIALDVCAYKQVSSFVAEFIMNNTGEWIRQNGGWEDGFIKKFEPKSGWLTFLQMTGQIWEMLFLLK
The experiment in a line: Bfl-1 inhibitors blocking BH3 peptide binding, confirmation, biochemical, TR-FRET, mouse Bfl-1 (AID 621).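 Also: TR-FRET binding of GST-Bfl-1 to FITC-labelled Bid peptide via terbium antibody.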

The target of assay [3] is T4, Bcl-2-related protein A1. Kind of assay: Bfl-1 binding inhibitors, SAR follow-up, biochemical, fluorescence polarization (AID 1070).
A short description of assay [4]: growth suppression of beta-catenin-knockout colon cells, dose response, cell-based, HCT116, human colon tumor (AID 1045).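 Also: HCT116 colon tumor cells with beta catenin knocked out; cells exposed to compound for 60 hours.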 The assay is classed as functional.
Assay [5] deals with Streptococcus sp. 'group A'. Kind of assay: growth inhibition of control SK(-) GAS strain, dose response, counter-screen for streptokinase expression inhibitor project, luminescence, kanamycin, BacTiterGlo, confirmation (AID 1900). It is filed as functional, organism-based.
In the next assay the test system is Streptococcus. The experiment in a line: Group A Streptococcus viability loss, dose response, counter-screen for streptokinase expression inhibitor project, luminescence, BacTiterGlo (AID 1915).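 Also: potency for reduction of bacterial viability or growth.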 It is filed as functional, organism-based.
The target of assay [6] is T5, Histone-lysine N-methyltransferase NSD2 (Homo sapiens, UniProt O96028).
T5 sequence (O96028 whole entry): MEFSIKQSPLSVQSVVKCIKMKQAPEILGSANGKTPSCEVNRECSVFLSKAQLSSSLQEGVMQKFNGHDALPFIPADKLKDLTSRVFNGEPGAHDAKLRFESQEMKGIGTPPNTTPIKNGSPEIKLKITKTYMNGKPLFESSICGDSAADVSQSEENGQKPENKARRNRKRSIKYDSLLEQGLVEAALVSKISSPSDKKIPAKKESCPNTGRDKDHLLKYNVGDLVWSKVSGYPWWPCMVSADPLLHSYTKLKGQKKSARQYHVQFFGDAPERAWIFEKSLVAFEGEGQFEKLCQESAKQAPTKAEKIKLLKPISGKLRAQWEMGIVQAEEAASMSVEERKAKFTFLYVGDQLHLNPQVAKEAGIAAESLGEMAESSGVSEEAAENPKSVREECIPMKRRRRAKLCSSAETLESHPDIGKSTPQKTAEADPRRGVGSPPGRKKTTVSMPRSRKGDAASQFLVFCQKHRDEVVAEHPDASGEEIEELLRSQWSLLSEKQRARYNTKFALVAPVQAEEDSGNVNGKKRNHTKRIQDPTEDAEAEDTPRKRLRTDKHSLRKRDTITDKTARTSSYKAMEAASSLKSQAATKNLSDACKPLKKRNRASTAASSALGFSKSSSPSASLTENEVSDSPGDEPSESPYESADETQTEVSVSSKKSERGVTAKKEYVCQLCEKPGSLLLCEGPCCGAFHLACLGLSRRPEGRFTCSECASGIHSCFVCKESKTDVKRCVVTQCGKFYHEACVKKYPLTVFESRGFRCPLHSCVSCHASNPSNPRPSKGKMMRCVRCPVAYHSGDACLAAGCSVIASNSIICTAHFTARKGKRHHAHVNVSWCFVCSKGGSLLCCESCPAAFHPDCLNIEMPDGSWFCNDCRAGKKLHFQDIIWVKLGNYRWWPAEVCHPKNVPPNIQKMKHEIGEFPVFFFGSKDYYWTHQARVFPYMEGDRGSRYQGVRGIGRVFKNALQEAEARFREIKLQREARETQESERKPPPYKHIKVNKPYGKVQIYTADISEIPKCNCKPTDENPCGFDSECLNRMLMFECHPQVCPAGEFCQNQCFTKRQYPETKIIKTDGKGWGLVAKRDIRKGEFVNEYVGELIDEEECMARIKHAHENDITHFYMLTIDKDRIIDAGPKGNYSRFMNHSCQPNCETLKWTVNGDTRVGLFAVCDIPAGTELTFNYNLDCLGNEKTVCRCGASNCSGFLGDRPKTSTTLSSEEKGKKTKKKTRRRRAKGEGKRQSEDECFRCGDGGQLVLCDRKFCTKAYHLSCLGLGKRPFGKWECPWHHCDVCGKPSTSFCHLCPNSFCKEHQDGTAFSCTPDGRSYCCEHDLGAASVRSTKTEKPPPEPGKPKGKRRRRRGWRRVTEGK
It is filed as biochemical.

Assay [7] relates to BJ. The experiment in a line: cytotoxicity toward BJ-TERT fibroblasts, dose response, cell-based, RAS-independent, luminescence (AID 1933). It is filed as functional. The settings on record: Homo sapiens.
Assay [8] is described as follows: cytotoxicity toward DRD oncogenic fibroblasts, dose response, cell-based, non-viral oncogenic, luminescence (AID 1934). The assay is classed as functional. The settings on record: Homo sapiens.
Assay [9] has as its system BJ. Kind of assay: cells. The settings on record: Homo sapiens. It is filed as functional, cell-based.
Assay [10] concerns the target T6, Corticotropin-releasing factor receptor 2/Corticotropin-releasing factor-binding protein (Homo sapiens, UniProt P24387+Q13324).
T6 sequence (Q13324 whole entry): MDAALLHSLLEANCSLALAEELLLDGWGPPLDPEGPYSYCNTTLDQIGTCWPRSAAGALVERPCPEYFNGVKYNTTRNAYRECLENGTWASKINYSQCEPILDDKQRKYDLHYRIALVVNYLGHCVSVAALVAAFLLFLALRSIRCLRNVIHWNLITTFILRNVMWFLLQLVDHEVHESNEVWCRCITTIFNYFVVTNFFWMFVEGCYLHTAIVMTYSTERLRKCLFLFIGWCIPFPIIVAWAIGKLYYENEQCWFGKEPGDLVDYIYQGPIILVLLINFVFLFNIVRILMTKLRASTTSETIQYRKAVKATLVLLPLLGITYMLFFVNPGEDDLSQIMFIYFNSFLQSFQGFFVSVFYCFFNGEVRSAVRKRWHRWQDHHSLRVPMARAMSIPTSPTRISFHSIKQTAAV
T6 sequence (P24387 whole entry): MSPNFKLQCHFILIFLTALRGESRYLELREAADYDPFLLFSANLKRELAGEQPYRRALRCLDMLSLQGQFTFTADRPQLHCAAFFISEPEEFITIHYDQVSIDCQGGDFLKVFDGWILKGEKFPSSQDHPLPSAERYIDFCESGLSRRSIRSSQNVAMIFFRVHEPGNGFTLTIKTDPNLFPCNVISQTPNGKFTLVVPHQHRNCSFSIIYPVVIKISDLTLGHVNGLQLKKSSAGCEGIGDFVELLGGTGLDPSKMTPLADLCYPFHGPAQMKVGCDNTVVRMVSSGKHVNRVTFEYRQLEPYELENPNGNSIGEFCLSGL
The experiment in a line: activators of CRF receptor 2 with binding protein – uHTS hits, confirmation (AID 602473). It is filed as functional. To be noted: read-out: EC50_Mean.

Assay [11] in a line: growth suppression of PTEN-null colon cells, dose response, cell-based, HCT116 PTEN knockout (AID 1047).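 Also: HCT116 colon tumor cells with PTEN knocked out; cells exposed to compound for 60 hours before readout; potency for loss of cell viability measured by luminescence.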 It is filed as functional.
Assay [12] concerns the target Sphingosine 1-phosphate receptor 2 (Homo sapiens, UniProt O95136). The experiment in a line: Dose Response Cell Based Assay for Antagonists of the S1P2 Receptor. [Related pubchem assays: 856, 736 ]. The assay is classed as functional.
Assay [13] has as its system BJ. Kind of assay: cytotoxicity toward BJ-TERT-LT-ST fibroblasts, dose response, cell-based, RAS-independent, luminescence (AID 1935).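 Also: BJ fibroblasts immortalized with TERT plus LT and ST oncogenes.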 It is filed as functional. The settings on record: Homo sapiens.
Assay [14] concerns BJ. The experiment in a line: cytotoxicity toward Ras-transformed BJeLR fibroblasts, dose response, cell-based, alamar blue fluorescence, cherrypicked samples (AID 2631).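 Also: confirmatory dose-response assay in RAS-dependent BJ fibroblasts engineered with TERT, LT and ST, with cytotoxicity read by fluorescence.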 It is filed as functional. The settings on record: Homo sapiens.

Sequence of Sphingosine 1-phosphate receptor 2 (O95136 whole entry): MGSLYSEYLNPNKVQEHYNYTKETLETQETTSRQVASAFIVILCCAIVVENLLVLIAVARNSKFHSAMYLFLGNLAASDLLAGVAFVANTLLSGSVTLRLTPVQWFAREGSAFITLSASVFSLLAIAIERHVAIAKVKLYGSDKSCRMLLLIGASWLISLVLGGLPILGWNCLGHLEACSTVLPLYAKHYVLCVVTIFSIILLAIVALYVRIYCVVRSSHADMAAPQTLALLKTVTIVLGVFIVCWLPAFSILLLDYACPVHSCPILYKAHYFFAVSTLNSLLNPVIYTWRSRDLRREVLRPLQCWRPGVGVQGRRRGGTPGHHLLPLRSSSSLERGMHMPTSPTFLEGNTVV
Sequence of SUMO-activating enzyme (Q9UBE0 whole entry): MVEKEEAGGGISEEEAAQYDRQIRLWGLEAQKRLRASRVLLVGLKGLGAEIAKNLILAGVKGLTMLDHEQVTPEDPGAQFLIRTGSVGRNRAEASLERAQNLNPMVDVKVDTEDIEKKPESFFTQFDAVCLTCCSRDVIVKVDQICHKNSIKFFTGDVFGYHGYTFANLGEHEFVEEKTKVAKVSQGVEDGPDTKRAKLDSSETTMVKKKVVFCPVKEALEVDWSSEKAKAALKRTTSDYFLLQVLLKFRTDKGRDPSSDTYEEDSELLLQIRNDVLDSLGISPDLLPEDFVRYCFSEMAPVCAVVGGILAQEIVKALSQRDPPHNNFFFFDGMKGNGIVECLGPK
Sequence of SUMO-activating enzyme (Q9UBT2 whole entry): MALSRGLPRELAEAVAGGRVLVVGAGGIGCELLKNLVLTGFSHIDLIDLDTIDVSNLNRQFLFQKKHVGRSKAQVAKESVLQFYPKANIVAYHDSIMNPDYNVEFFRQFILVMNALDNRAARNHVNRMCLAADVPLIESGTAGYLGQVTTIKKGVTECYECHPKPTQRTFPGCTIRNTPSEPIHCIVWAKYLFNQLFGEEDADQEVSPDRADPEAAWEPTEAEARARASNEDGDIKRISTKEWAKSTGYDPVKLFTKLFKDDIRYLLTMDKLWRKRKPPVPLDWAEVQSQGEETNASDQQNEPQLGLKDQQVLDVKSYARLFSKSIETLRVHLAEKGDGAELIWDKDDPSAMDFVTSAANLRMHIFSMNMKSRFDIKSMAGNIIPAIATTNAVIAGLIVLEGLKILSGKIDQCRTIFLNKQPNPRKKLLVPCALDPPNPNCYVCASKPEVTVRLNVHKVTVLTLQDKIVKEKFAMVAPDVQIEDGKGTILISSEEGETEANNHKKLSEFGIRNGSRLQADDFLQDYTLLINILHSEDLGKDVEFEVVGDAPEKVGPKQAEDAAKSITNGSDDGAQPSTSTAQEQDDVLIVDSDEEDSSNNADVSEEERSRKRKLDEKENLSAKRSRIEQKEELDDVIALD
Sequence of Ion channel NompC (Q7T1G6 whole entry): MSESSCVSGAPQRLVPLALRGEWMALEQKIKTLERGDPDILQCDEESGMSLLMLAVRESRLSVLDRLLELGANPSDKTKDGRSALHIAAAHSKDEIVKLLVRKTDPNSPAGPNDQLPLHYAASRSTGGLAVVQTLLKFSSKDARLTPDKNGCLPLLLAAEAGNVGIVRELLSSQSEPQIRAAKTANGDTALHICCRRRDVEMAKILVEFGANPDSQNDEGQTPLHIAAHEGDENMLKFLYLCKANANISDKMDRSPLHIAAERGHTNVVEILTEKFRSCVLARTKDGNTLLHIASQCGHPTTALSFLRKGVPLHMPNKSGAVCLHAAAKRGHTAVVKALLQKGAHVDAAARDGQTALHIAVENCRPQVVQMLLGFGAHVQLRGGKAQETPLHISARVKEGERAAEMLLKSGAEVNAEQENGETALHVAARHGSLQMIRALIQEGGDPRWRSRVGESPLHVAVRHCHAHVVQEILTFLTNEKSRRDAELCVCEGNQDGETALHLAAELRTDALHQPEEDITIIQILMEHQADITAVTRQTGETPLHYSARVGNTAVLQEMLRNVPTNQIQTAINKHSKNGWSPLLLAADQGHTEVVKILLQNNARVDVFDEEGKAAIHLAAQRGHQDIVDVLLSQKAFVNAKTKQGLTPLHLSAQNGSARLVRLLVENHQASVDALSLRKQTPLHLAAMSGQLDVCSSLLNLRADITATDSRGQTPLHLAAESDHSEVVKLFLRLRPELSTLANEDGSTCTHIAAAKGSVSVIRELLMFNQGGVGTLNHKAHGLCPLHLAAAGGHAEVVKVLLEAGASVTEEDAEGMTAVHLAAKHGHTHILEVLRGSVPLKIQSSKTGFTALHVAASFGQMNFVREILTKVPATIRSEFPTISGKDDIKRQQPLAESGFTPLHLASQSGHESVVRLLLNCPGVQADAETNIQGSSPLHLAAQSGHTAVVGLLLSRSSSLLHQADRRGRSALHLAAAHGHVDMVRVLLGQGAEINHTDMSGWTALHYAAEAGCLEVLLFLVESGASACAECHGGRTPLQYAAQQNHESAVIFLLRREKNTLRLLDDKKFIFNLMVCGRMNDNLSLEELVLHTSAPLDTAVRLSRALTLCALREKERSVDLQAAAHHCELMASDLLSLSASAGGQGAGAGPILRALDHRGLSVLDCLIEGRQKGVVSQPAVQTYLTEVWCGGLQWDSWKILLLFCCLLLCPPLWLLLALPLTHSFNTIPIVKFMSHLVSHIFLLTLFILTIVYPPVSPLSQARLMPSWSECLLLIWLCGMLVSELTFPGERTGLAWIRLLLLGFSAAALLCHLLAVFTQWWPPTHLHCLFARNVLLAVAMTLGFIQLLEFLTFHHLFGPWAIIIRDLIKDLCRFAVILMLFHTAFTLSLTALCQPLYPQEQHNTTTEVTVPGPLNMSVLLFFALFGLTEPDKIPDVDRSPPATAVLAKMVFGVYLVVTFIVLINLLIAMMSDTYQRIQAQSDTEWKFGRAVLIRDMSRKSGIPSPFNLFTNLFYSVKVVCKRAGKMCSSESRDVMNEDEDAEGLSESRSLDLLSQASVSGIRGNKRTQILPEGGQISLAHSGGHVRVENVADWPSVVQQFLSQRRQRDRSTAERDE

For the compound `O=c1oc2ccccc2c(Nc2ccccc2)c1CN1CCCCC1`, the EC50 in [1] is 3.35 µM (active).
Regarding `CN(CC(=O)ONC(=N)c1cccc([N+](=O)[O-])c1)S(=O)(=O)c1ccccc1`, the EC50 at Ion channel NompC was > 29.9 µM (not active); at Mucolipin-3, 12.4 µM (not active).
With `Cc1cccc(NC(=O)/C(C#N)=C/c2cn(CC(=O)NCc3ccco3)c3ccccc23)c1C`, the IC50 at SUMO-activating enzyme was 36.2 µM (active). The “Absolute IC50 (XBP1)” value at X-box-binding protein 1 was below 10 µM.
As for `Clc1ccc(-n2nnc(-c3cnc4ccccc4c3)n2)cn1`, the IC50 on Bcl-2-related protein A1 [2] and on Bcl-2-related protein A1 [3] was > 100 µM (not active) throughout.
For `CCN1/C(=C\C=C\C2=[N+](CC)c3ccccc3C2(C)C)C(C)(C)c2ccccc21.[O-][Cl+3]([O-])([O-])[O-]`, the EC50 in [4] is < 0.059 µM (active); in [5], 5.96 µM (active); in the assay with Streptococcus, 19.5 µM (active); in the assay on BJ [7] it was 0.395 µM (inconclusive); in assay [8], 0.903 µM (active); in the assay on BJ [9], 0.664 µM (active). The EC50 in [10] was 3.74 µM (active); in assay [11], < 0.059 µM (active); with BJ [13], 2.01 µM (active); with BJ [14], 0.273 µM (active). The AC50 in [6] is > 20 µM (inactive). Moreover, the IC50 in [12] was 0.587 µM (active).
